Experimental data as given in patent publication US3997543A (priority 1974, dated 1976).
Values joined by “and” are separate entries in the source; they are usually repeats but may differ in a detail not shown here. Equal entries are not always repeated. Where two headings read alike, the source gives them in different places.

Assays:
guinea pig ileum = experiment: tissue or blood; assay type: cell-based; conditions: for EC50: Cavia porcellus, read-out: ED50
[1] = pH 7
Mice Eyes = conditions: mouse, in vivo
Human Eyes [2] = conditions: in vivo
Human Eyes [3] = conditions: in vivo; remark: listed apart in the source
[4] = in vivo

CC(=O)OC1CN2CCC1CC2 (racemic) [(±) H Cl, 3-acetoxy-quinuclidine, reference compound]
EPMR (Equipotent molar ratio) (guinea pig ileum): 20
EC50 (guinea pig ileum): 700 nM

CC(=O)OC1CN2CCC1CC2 (single isomer, unassigned; (+)) [(+) 3-acetoxy quinuclidine]
stability of solutions on storage [1]: no perceptible deterioration

CC(=O)OC1CN2CCC1CC2 (single isomer, unassigned; (+)) [(+) H Cl, (+) 3-acetoxy quinuclidine]
Time after which acute miosis developed (Mice Eyes): 4 min
ACh-like agonist strength (guinea pig ileum): strongest agonist
Blockade of agonist effect by atropine (guinea pig ileum): blocked
EPMR (Equipotent molar ratio) (guinea pig ileum): 25
Pupil Diam. (Human Eyes [2]): 4.5 mm and 3.0 mm and 3.5 mm
Pupil Diameter (Human Eyes [3]): 3.5 mm

CC(=O)OC1CN2CCC1CC2 (single isomer, unassigned; (-)) [(-) H Cl]
Reversal of Mydriasis Time (Mice Eyes): > 15 min
EPMR (Equipotent molar ratio) (guinea pig ileum): 100
Pupil Diameter (Human Eyes [2]): 4.5 mm and 4.0 mm and 3.5 mm and 3.7 mm and 3.0 mm and 3.2 mm and 3.6 mm

CC(=O)OCC[N+](C)(C)C [Acetylcholine, reference compound]
EC50 (guinea pig ileum): 30 nM

CC[C@@H]1C(=O)OC[C@@H]1Cc1cncn1C [Pilocarpine]
Intraoccular pressure [4]: 31 mmHg and 33 mmHg and 24 mmHg and 25 mmHg and 26 mmHg and 29 mmHg and 28 mmHg
